We go through four molecules from paper PMC4754685 (Scientific Reports, 2016).

A word on the Kd: it is the equilibrium constant for the complex coming apart. Lower therefore signals tighter binding.

In the assay the target is T1, Mlp37p (periplasmic fragment of Mlp37) (Vibrio cholerae, UniProt A0A0H3AES3).
T1 construct: gene VC0395_0316
Put plainly: biochemical.

T1 sequence (A0A0H3AES3 58-303 limits assumed): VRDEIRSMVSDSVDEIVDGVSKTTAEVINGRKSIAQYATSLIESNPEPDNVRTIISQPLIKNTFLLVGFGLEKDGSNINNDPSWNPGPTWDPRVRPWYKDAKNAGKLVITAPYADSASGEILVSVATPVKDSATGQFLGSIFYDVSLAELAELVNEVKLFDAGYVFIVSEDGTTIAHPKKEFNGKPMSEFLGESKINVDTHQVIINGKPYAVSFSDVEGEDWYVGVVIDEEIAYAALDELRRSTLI

Molecule `C[C@H](N)C(=O)O` [L-alanine] gave a Kd of 2.7 µM.
`N=C(N)NCCC[C@H](N)C(=O)O` [L-arginine] gave a Kd of 5.6 µM.
The result for `NCCS(=O)(=O)O` [taurine, 2-aminoethanesulfonic acid] reads 3.2 µM; that for `N[C@@H](CO)C(=O)O` [L-serine], 3.6 µM.
